{"source": "patent EP0574185B1", "about": "“PGE1 analogs” (NEWPHARMA INTERNATIONAL CORPORATION, priority 1992, dated 1993)", "key": {"[1]": {"test_system": "isolated uterus under diestrous (without any spontaneous contractions)", "test": "B2: effect on isolated uterus of diestrous rat without spontaneous contractions (De Jalon solution with sodium diclofenac, non-cumulative curves)", "set-up": "species or system Wistar rats", "details": "for Area (g of tension/2 min): B2, basal 1,96", "experimental": "(B1)- Concentration-response curves on isolated rat uterus under diestrous condition were carried out. Wistar rats weighing 250 g to 300 g were employed. The diestrous phase was detected by a daily vaginal smear. The uterus was dissected out and a portion of a horn was placed in a 10 ml organ bath in a similar way to that described in part A. The bath temperature was maintained at 37°C, bubbled with a mixture of 95 % O2 and 5 % CO2 in a Krebs nutrient solution. The organ was left to stabilize for one hour. The isolated uterus presented basal spontaneous contractions under these experimental conditions. Cumulative concentration-response curves were carried out with the addition of either 100 µl or 300 µl of solutions of either natural prostaglandins or B-407 in concentrations of 10^-10 M to 10^-6 M, each 15 minutes without any washing. Uterine contractions and quantitation were performed as described in (A). (B2)- Concentration-response curves in isolated uterus under diestrous (without any spontaneous contractions) were carried out. Sodium diclofenac was added to De Jalon nutrient solution to a final concentration of 4x10^-6 M. The organ was left to stabilize until the absence of spontaneous contractions. Non-cumulative concentration-response curves were obtained. Recordings of the contractions and their quantitation were performed as described in (A).\nThe frequency and magnitude of the responses were globally evaluated by calculating the total area recorded at a fixed time period as will be further explained. The areas under the curve of the recording paper, over 15 minutes periods, were cut and weighed both in the concentration-response curves and in the potentiating experiments.\nThe calibration was made by weighing a piece of paper which corresponded to a tension of 1 g at the working sensitivity along 2 minutes. Therefore, a relationship of area expressed in g/2 min was obtained and then the weights of the areas of the responses were transformed to unities of area. The results were expressed as the mean ± the standard error of the areas obtained. The statistical evaluation of the differences was carried out either by ANOVA or by Student's-t-test, as appropriate."}, "[2]": {"test": "Diarrheagenic effect in mice", "set-up": "species or system Swiss mice", "details": "mouse, in vivo", "experimental": "The diarrheagenic effect of the synthetic PGE1 analog B-407 was evaluated in Swiss mice. The effect of the intraperitoneal and intravaginal routes of administration were studied as follows:\nSix groups of ten mice (25 to 30 g) each (5 ♂ and 5 ♀) were used. They received i.p. doses of 0; 1; 3; 10; 30 and 100 µg/kg of the test drug. The diarrheagenic response was evaluated on an \"all-or-none\" basis as described in section C.\nA seven points dose-response curve was performed for B-407. Eight groups of six mice (18 to 25 g) each received doses of 0; 10; 18; 32; 56; 100; 160 and 250 µg/kg of B-407.\nThe intravaginal administration was made through a polyethylene catheter attached to a 1 ml syringe. This system allows the delivery of volumes of 10 to 15 µl.\nThe animals were evaluated in an \"all-or-none\" basis as the ratio of the number of animals with diarrhea over the total number of mice in the group. The median effective doses (ED50) with their fiducial limits and the statistics were performed according Litchfield and Wilcoxon [Eur. J. Pharmacol. 34, 105 (1975); J. Pharmacol. Exp. Ther., 96, 99 (1949)]."}, "rat uterus": {"test_system": "rat uterus", "test": "Disappearance of exogenous PGF2α in rat uterus slices (R.I.A.)", "set-up": "species or system Wistar rats", "experimental": "An experiment was performed in which the disappearance of exogenous PGF2α was determined in the nutrient solution of slices of rat uterus both in the presence and absence of the synthetic PGE1 analog, B-407.\nSeven Wistar rats weighing approximately 220 g were estrogenized by the subcutaneous administration of 100 µg/kg of 17β estradiol. Twenty-four hours later they were killed by decapitation. The uterine horns were dissected out and weighed. The horns were cut and washed with bubbled De Jalon nutrient solution plus 4x10^-7 M sodium diclofenac during 15 to 20 minutes. Both bubbling and diclofenac content were maintained in the following steps: each horn was then placed in a small organ bath and preincubated during 15 to 20 min with either the nutrient solution alone or containing B-407 10^-8 M or 10^-7 M. The assay was started by adding exogenous PGF2α (10^-8 M in the medium) to each horn previously changed to a new tube. A final volume of 0.4 ml was obtained with the addition of De Jalon solution at 37°C. Aliquots of […] were sampled at 0 min, 5 min, 15 min and 30 min. The PGF2α concentration in each sample was determined by R.I.A. (Sigma, NEN) and it was expressed as pg/mg of wet tissue."}, "anesthetized rat": {"test_system": "anesthetized rat", "test": "Blood pressure and heart rate in anesthetized rat", "assay_type": "in vivo, male Wistar rats", "details": "i.v.; for HR (Heart Rate): basal 440,8 ± 9,7; for Δ MBP (Mean Blood Pressure): basal MBP 120,9 ± 4,6, n= 6", "experimental": "The acute effect of B-407 on the cardiovascular system was studied. After doses of 10 µg/kg, 30 µg/kg, and 100 µg/kg, administered intravenously (i.v.) the arterial blood pressure and heart rate were evaluated on male Wistar rats weighing 300 g to 350 g. Rats were anesthetized with 40 mg/kg, i.p., of sodium pentobarbital. The left jugular vein was cannulated by means of polyethylene tubing to allow the i.v. administration of drugs. The trachea was cannulated to facilitate ventilation and the right carotid artery was cannulated to record blood pressure and heart beat. A dose of 350 UI/kg, i.v., sodium heparin was administered. The catheter of the artery was connected to a pressure transducer attached to a Berger polygraph. The volume of the i.v. administrations was 0.4 ml/kg. The working protocol was as follows:\nA steady-state recording was obtained over a 30 minutes time period. Then a dose of 0.5 µg/kg of noradrenaline followed by 0.5 µg/kg of isoproterenol were administered over 5 to 10 minutes. After 5 min of recording, increasing doses of B-407 were administered every 15 minutes. The mean arterial blood pressure (mm Hg) was obtained by calculating the average of the values of […]. The heart rate (beats/min) was obtained by counting the number of contractions by units of time."}}}
{"smiles": "CCCCC(C)(O)C/C=C/[C@H]1[C@H](O)CC(=O)[C@@H]1CCCC/C=C/C(=O)OC", "note": "(mixture of isomers) [B-407, trans-Δ^2-15-deoxy-16-hydroxy-16-methyl PGE1 methyl ester]", "values": [{"measurement": "maximum response of the uterotonic effect relative to the basal one", "setting": "[1]; B2, with diclofenac", "value": "duplicates the basal one"}, {"measurement": "Area (g of tension/2 min)", "setting": "[1]; 1x10^-6 M", "value": "4,24 g of tension/2 min"}, {"measurement": "Area (g of tension/2 min)", "setting": "[1]; 1x10^-7 M", "value": "3,73 g of tension/2 min"}, {"measurement": "Area (g of tension/2 min)", "setting": "[1]; 1x10^-8 M", "value": "2,10 g of tension/2 min"}, {"measurement": "Area (g of tension/2 min)", "setting": "[1]; 1x10^-9 M", "value": "1,91 g of tension/2 min"}, {"measurement": "ED50", "setting": "[2]; ip, confidence limits 1,95 to 8,65, n 10", "value": 0.00412, "unit": "mg/kg"}, {"measurement": "ED50", "setting": "[2]; i.vag., confidence limits 27,4 to 124,9, n 6", "value": 0.0583, "unit": "mg/kg"}, {"measurement": "PGF2α (pg/mg tissue)", "setting": "rat uterus; B-407 10^-7 M, time 0 min, control 655,4", "value": "667,2 pg/mg tissue"}, {"measurement": "PGF2α (pg/mg tissue)", "setting": "rat uterus; B-407 10^-7 M, time 5 min, control 582.8", "value": "623,7 pg/mg tissue"}, {"measurement": "PGF2α (pg/mg tissue)", "setting": "rat uterus; B-407 10^-7 M, time 15 min, control 478.4", "value": "561,7 pg/mg tissue"}, {"measurement": "PGF2α (pg/mg tissue)", "setting": "rat uterus; B-407 10^-7 M, time 30 min, control 227.5", "value": "528,4 pg/mg tissue"}, {"measurement": "PGF2α (pg/mg tissue)", "setting": "rat uterus; B-407 10^-8 M, time 0 min, control 655,4", "value": "705,7 pg/mg tissue"}, {"measurement": "PGF2α (pg/mg tissue)", "setting": "rat uterus; B-407 10^-8 M, time 5 min, control 582.8", "value": "705,9 pg/mg tissue"}, {"measurement": "PGF2α (pg/mg tissue)", "setting": "rat uterus; B-407 10^-8 M, time 15 min, control 478.4", "value": "563,6 pg/mg tissue"}, {"measurement": "PGF2α (pg/mg tissue)", "setting": "rat uterus; B-407 10^-8 M, time 30 min, control 227.5", "value": "403,7 pg/mg tissue"}, {"measurement": "Higher lasting time", "setting": "anesthetized rat; 10 µg/kg", "value": "0,66 min"}, {"measurement": "HR (Heart Rate)", "setting": "anesthetized rat; 10 µg/kg", "value": "430,6 ± 7,2 Beats / min"}, {"measurement": "Δ MBP (Mean Blood Pressure)", "setting": "anesthetized rat; 10 µg/kg", "value": "-11,0 ± 1,3 mm Hg"}, {"measurement": "Higher lasting time", "setting": "anesthetized rat; 30 µg/kg", "value": "2,5 min"}, {"measurement": "HR (Heart Rate)", "setting": "anesthetized rat; 30 µg/kg", "value": "420,7 ± 4,1 Beats / min"}, {"measurement": "Δ MBP (Mean Blood Pressure)", "setting": "anesthetized rat; 30 µg/kg", "value": "-29,8 ± 3,8 mm Hg"}, {"measurement": "Higher lasting time", "setting": "anesthetized rat; 100 µg/kg", "value": "5,5 min"}, {"measurement": "HR (Heart Rate)", "setting": "anesthetized rat; 100 µg/kg", "value": "452,7 ± 16,7 Beats / min"}, {"measurement": "Δ MBP (Mean Blood Pressure)", "setting": "anesthetized rat; 100 µg/kg", "value": "-47,7 ± 3,3 mm Hg"}]}
